Reference: BigSolDB 2.1

CC(=O)c1ccc(S(C)(=O)=O)cc1
solubility (mole fraction)
Conditions | in cyclohexane | in ethanol | in ethyl acetate | in ethylene glycol | in isobutanol | in methanol | in n-butanol | in n-hexane | in n-propanol
278.15 K | 0.0049 | 0.0123 | 0.0253 | 0.0179 | 0.0074 | 0.0161 | 0.0087 | 0.003 | 0.0104
283.15 K | 0.0056 | 0.0137 | 0.027 | 0.0194 | 0.0083 | 0.0173 | 0.0096 | 0.0038 | 0.0114
288.15 K | 0.0065 | 0.0154 | 0.0295 | 0.0211 | 0.0094 | 0.019 | 0.0111 | 0.0049 | 0.0129
293.15 K | 0.0079 | 0.0172 | 0.0326 | 0.0238 | 0.0108 | 0.0215 | 0.0125 | 0.0062 | 0.0144
298.15 K | 0.0091 | 0.0197 | 0.0361 | 0.0273 | 0.0124 | 0.0246 | 0.014 | 0.0077 | 0.0162
303.15 K | 0.0109 | 0.0221 | 0.0402 | 0.0307 | 0.0142 | 0.0281 | 0.016 | 0.0099 | 0.0185
308.15 K | 0.0129 | 0.0249 | 0.0446 | 0.035 | 0.016 | 0.0321 | 0.018 | 0.0121 | 0.021
313.15 K | 0.0154 | 0.0283 | 0.0501 | 0.0395 | 0.0186 | 0.0369 | 0.0205 | 0.0146 | 0.0241
318.15 K | 0.0182 | 0.0325 | 0.0565 | 0.045 | 0.0211 | 0.0421 | 0.0234 | 0.0171 | 0.0273
323.15 K | 0.0217 | 0.0381 | 0.0639 | 0.0507 | 0.0246 | 0.0481 | 0.0271 | 0.0204 | 0.0318
328.15 K | 0.0255 | 0.0441 | 0.0745 | 0.0597 | 0.0284 | 0.0568 | 0.0315 | 0.0241 | 0.0365
